# Measured values: patent US20220081422A1 (Janssen Biotech, Inc., priority 2019, published 2022)
# What was measured:
# human DHODH = biological target: T1, human DHODH (Homo sapiens, UniProt Q02127); assay: DHODH enzymatic assay (DCIP absorbance, end-point); assay type: biochemical; conditions: purified human DHODH, DCIP as final electron acceptor, end-point mode; read-out: hDHODH IC50
# T1 construct: purchased Proteros PR-0044
# Protocol: In vitro Assay: DHODH enzymatic assay
# To detect DHODH enzyme activities, dichloroindophenol (DCIP) is added as the final electron acceptor in the assay. DCIP can accept electrons from the reduced coenzyme Q generated in the assay, or from dihydroorotate (DHO) via FMN by binding presumably to the ubiquinone pocket. […] The assay buffer contained […], pH 7.5, 150 mM NaCl, 0.5 mM EDTA, and 0.1% Triton X-100 in MilliQ water. Substrate consisting of 20 mM DHO, 5 mM CoQ6, and 1 mM DCIP in assay buffer, initiates the reaction. […] Absorbance measurements were obtained using the BMG Phera Star plate-reading spectrophotometer. Purified human DHODH was purchased from Proteros (cat. No. PR-0044). Chemicals were purchased from Sigma-Aldrich, Teknova, and Avanti Polar Lipids. Liquid handling was performed using Labcyte Echo and Formulatrix Tempest.
# MOLM-13 cells = assay: MOLM-13 cellular assay (CellTiter-Glo cell viability); assay type: cell-based; conditions: 72 hours exposure, cell viability by CellTiter-Glo
# Protocol: In Vitro Assay: MOLM-13 Cellular Assay
# MOLM-13 cells were obtained from DSMZ and were maintained in RPMI 1640+Glutamax+25 mM HEPES (Invitrogen, catalog number 72400) supplemented with 10% heat inactivated fetal bovine serum (FBS; Invitrogen, catalog number 16140). The day prior to assay set-up, cells were pelleted, resuspended in fresh media, counted, and cells were plated at 0.4×10^6 cell/mL in a T150 flask. On the day of the assay, cells were pelleted, resuspend in fresh media, counted and seeded at 5,000 cells/well in white opaque 96-well tissue culture treated microplates (Perkin Elmer, catalog number 6005680). Cells were exposed to different concentrations of test compounds at 37° C., 5% CO2 for 72 hours immediately after seeding. Cell viability was acquired on a Perkin Elmer Envision 2104 multilabel reader using the CellTiter-Glo assay (Promega) according to the manufacturer's instructions.
# T1 sequence (Q02127 whole entry): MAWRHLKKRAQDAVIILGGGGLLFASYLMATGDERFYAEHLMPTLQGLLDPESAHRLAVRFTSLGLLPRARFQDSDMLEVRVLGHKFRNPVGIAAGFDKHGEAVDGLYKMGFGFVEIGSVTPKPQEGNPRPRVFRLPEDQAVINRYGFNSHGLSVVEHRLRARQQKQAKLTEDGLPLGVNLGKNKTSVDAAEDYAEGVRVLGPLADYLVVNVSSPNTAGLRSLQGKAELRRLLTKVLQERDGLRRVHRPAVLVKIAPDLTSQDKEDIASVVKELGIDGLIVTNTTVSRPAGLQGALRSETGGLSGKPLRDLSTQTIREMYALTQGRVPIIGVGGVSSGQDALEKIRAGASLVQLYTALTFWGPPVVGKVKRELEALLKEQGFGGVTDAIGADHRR
Compound,IC50 (human DHODH),IC50 (MOLM-13 cells),"IC50 (MOLM-13 cells; Homo sapiens, MOLM-13, 72 h)"
"C=C(C)C1CN(c2cc(C)ccc2F)C(=O)c2cc(F)c(-n3nc(CO)n(CC)c3=O)cc21 (single isomer, unassigned) [Example 40, (R *)-6-(4-Ethyl-3-(hydroxymethyl)-5-oxo-4,5-dihydro-1H-1,2,4-triazol-1-yl)-7-fluoro-2-(2-fluoro-5-methylphenyl)-4-(prop-1-en-2-yl)-3,4-dihydroisoquinolin-1(2H)-one]",40 nM,52.9 nM,–
"C=C(C)C1CN(c2c(C)n[nH]c2Cl)C(=O)c2cc(F)c(-n3nc(CO)n(CC)c3=O)cc21 (single isomer, unassigned) [Example 49, (R *)-2-(5-Chloro-3-methyl-1H-pyrazol-4-yl)-6-(4-ethyl-3-(hydroxymethyl)-5-oxo-4,5-dihydro-1H-1,2,4-triazol-1-yl)-7-fluoro-4-(prop-1-en-2-yl)-3,4-dihydroisoquinolin-1(2H)-one]",10 nM,2.28 nM,–
"CCCCN1CN(c2c(F)cccc2Cl)C(=O)c2cc(F)c(-n3nc(CO)n(CC)c3=O)cc21 [Example 20, 1-Butyl-3-(2-chloro-6-fluorophenyl)-7-(4-ethyl-3-(hydroxymethyl)-5-oxo-4,5-dihydro-1H-1,2,4-triazol-1-yl)-6-fluoro-2,3-dihydroquinazolin-4(1H)-one]",5 nM,–,10.2 nM
"CCn1c(CO)nn(-c2cc3c(cc2F)C(=O)N(c2c(C)ccnc2Cl)CN3C(C)C)c1=O [Example 28, 3-(2-Chloro-4-methylpyridin-3-yl)-7-(4-ethyl-3-(hydroxymethyl)-5-oxo-4,5-dihydro-1H-1,2,4-triazol-1-yl)-6-fluoro-1-isopropyl-2,3-dihydroquinazolin-4(1H)-one]",20 nM,–,36.1 nM
"CCn1c(CO)nn(-c2cc3c(cc2F)C(=O)N(c2cc(C)ccc2F)CN3C(C)C)c1=O [Example 26, 7-(4-Ethyl-3-(hydroxymethyl)-5-oxo-4,5-dihydro-1H-1,2,4-triazol-1-yl)-6-fluoro-3-(2-fluoro-5-methylphenyl)-1-isopropyl-2,3-dihydroquinazolin-4(1H)-one]",20 nM,–,27.5 nM
"C=C(C)C1CN(c2cc(C)ccc2F)C(=O)c2cc(F)c(-n3nc(CO)n(CC)c3=O)cc21 (single isomer, unassigned) [Example 39, (S *)-6-(4-Ethyl-3-(hydroxymethyl)-5-oxo-4,5-dihydro-1H-1,2,4-triazol-1-yl)-7-fluoro-2-(2-fluoro-5-methylphenyl)-4-(prop-1-en-2-yl)-3,4-dihydroisoquinolin-1(2H)-one]",20 nM,14.1 nM,–
"CCn1c(CO)nn(-c2cc3c(cc2F)C(=O)N(c2c(F)cccc2Cl)C(C)(C)N3C(C)C)c1=O [Example 3, 3-(2-Chloro-6-fluorophenyl)-7-(4-ethyl-3-(hydroxymethyl)-5-oxo-4,5-dihydro-1H-1,2,4-triazol-1-yl)-6-fluoro-1-isopropyl-2,2-dimethyl-2,3-dihydroquinazolin-4 (1H)-one]",1040 nM,–,440 nM
"CCn1c(CO)nn(-c2nc3c(cc2F)C(=O)N(c2c(F)cccc2Cl)CN3C2CCC2)c1=O [Example 7, 3-(2-chloro-6-fluorophenyl)-1-cyclobutyl-7-(4-ethyl-3-(hydroxymethyl)-5-oxo-4,5-dihydro-1H-1,2,4-triazol-1-yl)-6-fluoro-2,3-dihydropyrido[2,3-d]pyrimidin-4(1H)-one]",2.6 nM,–,1.7 nM
"CCn1c(CO)nn(-c2cc3c(cc2F)C(=O)N(c2c(F)cccc2Cl)C(C)N3C(C)C)c1=O (centres unmarked) [Example 2, 3-(2-Chloro-6-fluorophenyl)-7-(4-ethyl-3-(hydroxymethyl)-5-oxo-4,5-dihydro-1H-1,2,4-triazol-1-yl)-6-fluoro-1-isopropyl-2-methyl-2,3-dihydroquinazolin-4(1H)-one]",35 nM,–,8.4 nM
"C=C(C)C1CN(c2c(Cl)ccnc2C)C(=O)c2cc(F)c(-n3nc(CO)n(CC)c3=O)cc21 (racemic) [Example 25, Racemic-2-(4-Chloro-2-methylpyridin-3-yl)-6-(4-ethyl-3-(hydroxymethyl)-5-oxo-4,5-dihydro-1H-1,2,4-triazol-1-yl)-7-fluoro-4-(prop-1-en-2-yl)-3,4-dihydroisoquinolin-1(2H)-one]",> 100 nM,–,62.5 nM
"CC[C@H](C)N1CN(c2c(F)cccc2Cl)C(=O)c2cc(F)c(-n3nc(CO)n(CC)c3=O)nc21 [Example 31, (S)-1-(sec-Butyl)-3-(2-chloro-6-fluorophenyl)-7-(4-ethyl-3-(hydroxymethyl)-5-oxo-4,5-dihydro-1H-1,2,4-triazol-1-yl)-6-fluoro-2,3-dihydropyrido[2,3-d]pyrimidin-4(1H)-one]",0.7 nM,–,0.962 nM
"CC[C@H](C)N1CN(c2c(F)cccc2Cl)C(=O)c2cc(F)c(-n3nc(CO)n(CC)c3=O)cc21 [Example 16, (S)-1-(sec-Butyl)-3-(2-chloro-6-fluorophenyl)-7-(4-ethyl-3-(hydroxymethyl)-5-oxo-4,5-dihydro-1H-1,2,4-triazol-1-yl)-6-fluoro-2,3-dihydroquinazolin-4(1H)-one]",0.3 nM,–,< 1.69 nM

# Next, values leading:
IC50 (human DHODH),IC50 (MOLM-13 cells),"IC50 (MOLM-13 cells; Homo sapiens, MOLM-13, 72 h)",Compound
4 nM,–,4.3 nM,"CC[C@H](C)[C@H]1CN(c2c(F)cccc2Cl)C(=O)c2cc(F)c(-n3nc(CO)n(CC)c3=O)cc21 (relative stereo) [Example 71, (R*)-4-((S *)-sec-B utyl)-2-(2-chloro-6-fluorophenyl)-6-(4-ethyl-3-(hydroxymethyl)-5-oxo-4,5-dihydro-1H-1,2,4-triazol-1-yl)-7-fluoro-3,4-dihydroisoquinolin-1(2H)-one]"
> 100 nM,1860 nM,–,"C=C(C)[C@H]1CN(c2c(C)cc(C)nc2Cl)C(=O)c2cc(F)c(-n3nc(CO)n(CC)c3=O)cc21 (single isomer, unassigned; atropisomer 1) [Example 59, Atropisomer 1, (R *)-2-(2-Chloro-4,6-dimethylpyridin-3-yl)-6-(4-ethyl-3-(hydroxymethyl)-5-oxo-4,5-dihydro-1H-1,2,4-triazol-1-yl)-7-fluoro-4-(prop-1-en-2-yl)-3,4-dihydroisoquinolin-1(2H)-one]"
> 100 nM,359 nM,–,"C=C(C)[C@H]1CN(c2c(C)cnc(OC)c2Cl)C(=O)c2cc(F)c(-n3nc(CO)n(CC)c3=O)cc21 (single isomer, unassigned; atropisomer 1) [Example 63, Atropisomer 1, (R *)-2-(3-Chloro-2-methoxy-5-methylpyridin-4-yl)-6-(4-ethyl-3-(hydroxymethyl)-5-oxo-4,5-dihydro-1H-1,2,4-triazol-1-yl)-7-fluoro-4-(prop-1-en-2-yl)-3,4-dihydroisoquinolin-1(2H)-one]"
> 100 nM,26.8 nM,–,"C=C(C)[C@@H]1CN(c2c(C)cc(C)nc2Cl)C(=O)c2cc(F)c(-n3nc(CO)n(CC)c3=O)cc21 (single isomer, unassigned; atropisomer 1) [Example 60, Atropisomer 1, (S*)-2-(2-Chloro-4,6-dimethylpyridin-3-yl)-6-(4-ethyl-3-(hydroxymethyl)-5-oxo-4,5-dihydro-1H-1,2,4-triazol-1-yl)-7-fluoro-4-(prop-1-en-2-yl)-3,4-dihydroisoquinolin-1(2H)-one]"
0.3 nM,< 1.69 nM,–,"C=C(C)C1CN(c2c(F)cccc2Cl)C(=O)c2cc(F)c(-n3nc(CO)n(CC)c3=O)cc21 (single isomer, unassigned) [Example 69, (S*)-2-(2-Chloro-6-fluorophenyl)-6-(4-ethyl-3-(hydroxymethyl)-5-oxo-4,5-dihydro-1H-1,2,4-triazol-1-yl)-7-fluoro-4-(prop-1-en-2-yl)-3,4-dihydroisoquinolin-1(2H)-one]"
> 100 nM,101 nM,–,"C=C(C)[C@@H]1CN(c2c(C)cnc(OC)c2C)C(=O)c2cc(F)c(-n3nc(CO)n(CC)c3=O)cc21 (single isomer, unassigned; atropisomer 2) [Example 56, Atropisomer 2, (S*)-6-(4-Ethyl-3-(hydroxymethyl)-5-oxo-4,5-dihydro-1H-1,2,4-triazol-1-yl)-7-fluoro-2-(2-methoxy-3,5-dimethylpyridin-4-yl)-4-(prop-1-en-2-yl)-3,4-dihydroisoquinolin-1(2H)-one]"
4 nM,2.93 nM,–,"C=C(C)[C@@H]1CN(c2c(C)cc(C)nc2Cl)C(=O)c2cc(F)c(-n3nc(CO)n(CC)c3=O)cc21 (single isomer, unassigned; atropisomer 1) [Example 58, Atropisomer 1, (S*)-2-(2-Chloro-4,6-dimethylpyridin-3-yl)-6-(4-ethyl-3-(hydroxymethyl)-5-oxo-4,5-dihydro-1H-1,2,4-triazol-1-yl)-7-fluoro-4-(prop-1-en-2-yl)-3,4-dihydroisoquinolin-1(2H)-one]"
